This note sets out measurements from patent US20240190876A1, “Tricyclic Urea Compounds As JAK2 V617F Inhibitors” (Incyte Corporation, priority 2022, published 2024).

pIC50: −log10 of the molar value.

Data set [1] deals with Phospho-STAT5 (Tyr694) in SET-2 cells. Briefly: STAT5 (Tyr694) Phosphorylation Cell Based Assay. The following applies: Homo sapiens, pSTAT5 (Tyr694) HTRF, 2 hours, RPMI with 10% FBS, read-out: SET2 IC50. The procedure:
SET-2 cells was purchased from DSMZ (Germany). RPMI1640 medium, Fetal Bovine Serum and 384-white sold flat-bottom small volume plate were purchased from Thermo Fisher Scientific (Waltham, MA). Phospho-STAT5 (Tyr694) HTRF kit was purchased from Perkin Elmer (Waltham, MA).
SET-2 cells were cultured in RPMI media with 20% FBS at 37° C. in humidified incubator supplied with 5% CO2. On the day of assay, the cells were centrifuged to remove the culture media and resuspended with prewarmed RPMI with 10% FBS.
Testing compounds were prepared by serial dilution in DMSO and 50 nL/well test compounds were transferred to the 384 white low volume cell culture plate (Greiner Bio-one) by ECHO liquid handler (Labcyte). The cells were then dispensed with Multidrop (Thermo Fisher, Waltham, MA) at 10 μL/well (7×10^6 cells/mL) with 0.5% DMSO in the final assay. After the treated cells were incubated for 2 hours at 37° C./5% CO2 incubator, 4 μL/well supplemented lysis buffer (100X blocking buffer diluted 25 fold in 4X lysis buffer, Perkin Elmer) were added and incubated at room temperature for 90 min on orbital shaker at 600 rpm. Phospho-STAT5 Cryptate antibody and Phospho-STAT5 d2 antibody (1:1 vol/vol) were premixed and diluted 20 fold with in the detection buffer (Perkin Elmer). 4 μL of the premixed antibody solution were added to each well followed with 24 hours incubation at room temperature on orbital shaker at 600 rpm. The product activity was determined by measuring the fluorescence at 620 nm and 665 nm on Pherastar microplate reader (BMG Labtech). A ratio is calculated (665/620) for each well. Wells with DMSO only served as the positive controls and wells containing high concentration of control compound were used as negative controls. IC50 determination was performed by fitting the curve of percent control activity versus the log of the compound concentration using the GraphPad Prism 7.0 software.
For orientation: TR-FRET usually uses a lanthanide donor and a delayed reading to cut background.

The target in data set [2] is KIT (Homo sapiens, UniProt P10721). Briefly: KIT Enzymatic Assay. Format: biochemical. The following applies: HTRF kinase assay, 1 mM ATP. As for the experimental part: (§1) The kinase assays were carried out at room temperature in assay buffer (HEPES 50 mM, pH 7.0, NaN3 0.02%, BSA 0.01%, Orthovanadate 0.1 mM, DTT 1 mM, MgCl2 10 mM) in a final volume of 10 μL. Testing compounds were prepared by serial dilution in DMSO and transferred to the plate wells by ECHO liquid handler (Labcyte) with 0.5% DMSO in the final assay. […]. Reactions were initiated by the addition of 5 μL ATP in assay buffer. The final 10 μL kinase reaction consists of 0.12 nM KIT, 1 mM ATP, 500 nM TK Substrate-biotin and SEB reagent 62.5 nM in assay buffer. […] The plates were then sealed and centrifuged at 1800 rpm for 2 minutes. After 60 minutes incubation at room temperature, the product activity was determined by measuring the fluorescence at 620 nm and 665 nm on Pherastar microplate reader (BMG Labtech). A ratio is calculated (665/620 nm) for each well. Wells with DMSO only were served as the positive controls and wells containing no ATP were used as negative controls. IC50 determination was performed by fitting the curve of percent control activity versus the log of the compound concentration using the GraphPad Prism 7.0 software.

The test system of data set [3] is KIT. Briefly: KIT Enzymatic Assay. Format: biochemical. The settings on record: ratio KIT IC50 / JH2 V617F binding IC50. The procedure:
as §1

Data set [4] is described as follows: In Vitro Intrinsic Clearance. The data set is classed as in vitro ADME. The settings on record: human liver microsomes, 1 μM compound, NADPH, scaled to human. The procedure: For in vitro metabolic stability experiments, test compounds were incubated with human liver microsomes at 37° C. The incubation mixture contained test compounds (1 μM), NADPH (2 mM), and human liver microsomes ([…]) in 100 mM phosphate buffer (pH 7.4). The mixture was pre-incubated for 2 min at 37° C. before the addition of NADPH. Reactions were commenced upon the addition of NADPH and quenched with ice-cold methanol at 0, 10, 20, and 30 min. Terminated incubation mixtures were analyzed using LC-MS/MS system. The analytical system consisted of a Shimadzu LC-30AD binary pump system and SIL-30AC autosampler (Shimadzu Scientific Instruments, Columbia, MD) coupled with a Sciex Triple Quad 6500+mass spectrometer from Applied Biosystems (Foster City, CA). […] Mobile phase A consisted of 0.1% formic acid in water, and mobile phase B consisted of 0.1% formic acid in acetonirile. The total LC-MS/MS runtime was 2.75 minutes with a flow rate of 0.75 mL/min. Peak area integrations and peak area ratio calculations were performed using Analyst software (version 1.6.3) from Applied Biosystems.
The in vitro intrinsic clearance, CLint, in vitro, was calculated from the t1/2 of test compound disappearance as CLint, in vitro=(0.693/t1/2)×(1/Cprotein), where Cprotein is the protein concentration during the incubation, and t1/2 was determined by the slope (k) of the log-linear regression analysis of the concentration versus time profiles; thus, t1/2ln2/k. The CLint, in vitro values were scaled to the in vivo values for human by using physiologically based scaling factors, hepatic microsomal protein concentrations (45 mg protein/g liver), and liver weights (21 g/kg body weight). The equation CLint=CLint, in vitro×(mg protein/g liver weight)×(g liver weight/kg body weight) was used. The in vivo hepatic clearance (CLH) was then calculated by using CLint and hepatic blood flow, Q (20 mL·min^−1kg^−1 in humans) in the well-stirred liver model disregarding all binding from CLH (Q×CLint)/(Q+CLint). The hepatic extraction ratio was calculated as CLH divided by Q.
A general note: Liver microsomes are vesicles of endoplasmic reticulum, rich in cytochrome P450 enzymes.

The nature of data set [5]: In Vivo Pharmacokinetics, rat oral dosing. Also noted: species or system Sprague Dawley rats. The following applies: male, Sprague Dawley, oral gavage 3.0 mg/kg, plasma, cassette dosing. The procedure: Test compounds were administered to male Sprague Dawley rats or male and female Cynomolgus monkeys intravenously or via oral gavage. For intravenous (IV) dosing, test compounds were dosed at 1 mg/kg using a formulation of 10% dimethylacetamide (DMAC), 10% propylene glycol (PG) in acidified saline via IV bolus for rat or 10 min IV infusion for monkey. For oral (PO) dosing, test compounds were dosed at 3.0 mg/kg using 5% DMAC in 0.5% methylcellulose in citrate buffer (pH -2.5). Blood samples were collected at predose and various time points up to 24 hours postdose. All blood samples were collected using EDTA as the anticoagulant and centrifuged to obtain plasma samples. The plasma concentrations of test compounds were determined by LC-MS/MS methods. The measured plasma concentrations were used to calculate PK parameters by standard noncompartmental methods using Phoenix© WinNonlin software program (version 8.0, Pharsight Corporation) or similar software. In rats and monkeys, cassette dosing of test compounds were conducted to obtain preliminary PK parameters. In vivo pharmacokinetic experiments with male beagle dogs may be performed under the conditions described above.

Sequence of KIT (Homo sapiens, UniProt P10721) (P10721 26-976, species assumed): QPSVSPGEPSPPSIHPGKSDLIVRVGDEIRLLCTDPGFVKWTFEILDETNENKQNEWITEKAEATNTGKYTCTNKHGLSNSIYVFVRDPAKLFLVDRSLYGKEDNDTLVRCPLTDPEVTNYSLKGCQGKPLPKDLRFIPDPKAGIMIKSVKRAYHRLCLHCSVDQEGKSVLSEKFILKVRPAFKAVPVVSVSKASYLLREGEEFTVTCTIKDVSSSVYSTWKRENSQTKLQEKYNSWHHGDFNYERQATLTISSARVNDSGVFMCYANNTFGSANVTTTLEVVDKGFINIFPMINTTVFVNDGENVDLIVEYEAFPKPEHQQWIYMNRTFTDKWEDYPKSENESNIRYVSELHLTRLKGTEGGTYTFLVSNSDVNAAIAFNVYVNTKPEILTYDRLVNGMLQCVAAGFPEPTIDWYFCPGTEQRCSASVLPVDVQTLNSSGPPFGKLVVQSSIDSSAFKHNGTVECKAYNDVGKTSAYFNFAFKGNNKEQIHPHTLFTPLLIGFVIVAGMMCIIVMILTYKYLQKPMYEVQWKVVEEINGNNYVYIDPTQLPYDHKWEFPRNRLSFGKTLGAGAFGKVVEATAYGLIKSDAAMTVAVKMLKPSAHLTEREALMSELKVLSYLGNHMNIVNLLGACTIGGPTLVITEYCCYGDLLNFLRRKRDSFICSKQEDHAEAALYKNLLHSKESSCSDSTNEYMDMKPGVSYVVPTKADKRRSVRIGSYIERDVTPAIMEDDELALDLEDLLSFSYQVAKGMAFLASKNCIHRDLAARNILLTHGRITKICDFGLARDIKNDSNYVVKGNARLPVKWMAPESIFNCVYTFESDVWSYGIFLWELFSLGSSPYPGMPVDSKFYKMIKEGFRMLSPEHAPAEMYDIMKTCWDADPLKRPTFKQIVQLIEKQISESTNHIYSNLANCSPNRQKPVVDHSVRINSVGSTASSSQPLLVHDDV

The term pIC50 denotes the negative decadic logarithm of the IC50, by convention in mol/L. One may read the AUC as concentration integrated over time. Regarding `COc1ccc(-c2c(-c3cn(C)nc3OC)[nH]c3ncc4c(c23)n([C@H]2CC[C@@](C)(NC(=O)C3CC3)CC2)c(=O)n4C)cc1` [Example 1, N-((1s,4s)-4-(7-(3-Methoxy-1-methyl-1H-pyrazol-4-yl)-8-(4-methoxyphenyl)-3-methyl-2-oxo-3,6-dihydroimidazo[4,5-d]pyrrolo[2,3-b]pyridin-1(2H)-yl)-1-methylcyclohexyl)cyclopropanecarboxamide], the figures for the pIC50 in data set [1] and in data set [2] were no less than 6.52 and less than 5.60, respectively. Besides, the “Selectivity KIT/JH2 V617F” value in data set [3] is on record as “****** (****** refers to selectivity of >12500-fold)”. The h-IntCL entry in data set [4] is “‡ (‡ refers to h-IntCL of <0.7 L/h/kg)”. Besides, the AUC in data set [5] is greater than 1.5 µM·h.
For `[2H]C([2H])([2H])n1ncc2cc(-c3c(-c4cn(C)nc4OC)[nH]c4ncc5c(c34)n([C@H]3CC[C@@](C)(NC(=O)C4CC4)CC3)c(=O)n5C)ccc21` [Example 2, N-((1s,4s)-4-(7-(3-Methoxy-1-methyl-1H-pyrazol-4-yl)-3-methyl-8-(1-(methyl-d3)-1H-indazol-5-yl)-2-oxo-3,6-dihydroimidazo[4,5-d]pyrrolo[2,3-b]pyridin-1(2H)-yl)-1-methylcyclohexyl)cyclopropanecarboxamide], in that order: no less than 6.52, less than 5.60, “****** (****** refers to selectivity of >12500-fold)”, “‡ (‡ refers to h-IntCL of <0.7 L/h/kg)” and 0.5 to 1.5 µM·h.
The matching figures for `[2H]C([2H])([2H])n1cc(-c2[nH]c3ncc4c(c3c2-c2ccc(OC)cc2)n([C@H]2CC[C@@](C)(NC(=O)C3CC3)CC2)c(=O)n4C)c(F)n1` [Example 3, N-((1s,4s)-4-(7-(3-fluoro-1-(methyl-d3)-1H-pyrazol-4-yl)-8-(4-methoxyphenyl)-3-methyl-2-oxo-3,6-dihydroimidazo[4,5-d]pyrrolo[2,3-b]pyridin-1(2H)-yl)-1-methylcyclohexyl)cyclopropanecarboxamide]: no less than 6.52, 5.90 to 6.60, “**** (**** refers to selectivity of >1750-fold to ≤5000-fold)”, “‡ ‡ (‡ ‡ refers to h-IntCL of ≥0.7 L/h/kg to ≤1 L/h/kg)” and greater than 1.5 µM·h.
`[2H]C([2H])([2H])n1cc(-c2[nH]c3ncc4c(c3c2-c2ccc3c(cnn3C([2H])([2H])[2H])c2)n([C@H]2CC[C@@](C)(NC(=O)C3CC3)CC2)c(=O)n4C)c(F)n1` [Example 4, N-((1s,4s)-4-(7-(3-fluoro-1-(methyl-d3)-1H-pyrazol-4-yl)-3-methyl-8-(1-(methyl-d3)-1H-indazol-5-yl)-2-oxo-3,6-dihydroimidazo[4,5-d]pyrrolo[2,3-b]pyridin-1(2H)-yl)-1-methylcyclohexyl)cyclopropanecarboxamide]: the pIC50 was no less than 6.52 in data set [1] and 5.90 to 6.60 in data set [2]. For the same compound, the “Selectivity KIT/JH2 V617F” value in data set [3] is listed as “**** (**** refers to selectivity of >1750-fold to ≤5000-fold)”. In addition, the h-IntCL result in data set [4] was “‡ (‡ refers to h-IntCL of <0.7 L/h/kg)”. Also, in data set [5], the AUC is no more than 0.5 µM·h.
As to `[2H]C([2H])([2H])n1ncc2cc(-c3c(-c4cn(CC)nc4F)[nH]c4ncc5c(c34)n([C@H]3CC[C@@](C)(NC(=O)C4CC4)CC3)c(=O)n5C)ccc21` [Example 5, N-((1s,4s)-4-(7-(1-Ethyl-3-fluoro-1H-pyrazol-4-yl)-3-methyl-8-(1-(methyl-d3)-1H-indazol-5-yl)-2-oxo-3,6-dihydroimidazo[4,5-d]pyrrolo[2,3-b]pyridin-1(2H)-yl)-1-methylcyclohexyl)cyclopropanecarboxamide], the values for the pIC50 in data set [1] and in data set [2] were no less than 6.52 and 5.90 to 6.60, respectively. The “Selectivity KIT/JH2 V617F” value in data set [3] was “**** (**** refers to selectivity of >1750-fold to ≤5000-fold)”. Further, the h-IntCL entry in data set [4] is “‡ (‡ refers to h-IntCL of <0.7 L/h/kg)”. In data set [5], this compound showed an exposure (AUC) greater than 1.5 µM·h.
For `[2H]C([2H])([2H])n1cc(-c2[nH]c3ncc4c(c3c2-c2ccc(OC)cc2)n([C@H]2CC[C@@](C)(NC(=O)[C@H]3C[C@H]3F)CC2)c(=O)n4C([2H])([2H])[2H])c(F)n1` [Example 6, (1R,2R)-2-Fluoro-N-((1s,4S)-4-(7-(3-fluoro-1-(methyl-d3)-1H-pyrazol-4-yl)-8-(4-methoxyphenyl)-3-(methyl-d3)-2-oxo-3,6-dihydroimidazo[4,5-d]pyrrolo[2,3-b]pyridin-1(2H)-yl)-1-methylcyclohexyl)cyclopropane-1-carboxamide], in that order: no less than 6.52, 5.90 to 6.60, “***** (***** refers to selectivity of >5000-fold to ≤12500-fold)”, “‡ (‡ refers to h-IntCL of <0.7 L/h/kg)” and greater than 1.5 µM·h.
